Reference: PubChem BioAssay AID179 (DTP/NCI, 2004)
Activity calls are given as the source filed them.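 Rule for the calls: active = compounds giving half or more protection of infected cells from virus-caused growth loss, again on retest; inactive = the rest.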

Test system: CEM cells HIV-1 protection, formazan growth assay
Assay: NCI AIDS Antiviral Assay
Conditions: for IC50: measured here: growth of uninfected CEM cells
Method in brief: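 Protection of CEM cells against HIV-1 measured as cell growth via soluble formazan read-out, with five concentrations tested on both infected and uninfected cells; failure to protect may reflect toxicity.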

Compound	EC50	IC50	outcome
CCOC(=O)C1c2[nH]c3ccccc3c2CCN1C(=O)c1ccc(OC)o1 (stereo not given)	> 51.3 µM	38.9 µM	–
CCC[CH2][Sn]([CH2]CCC)([S]CCS(=O)(=O)O)[S]CCS(=O)(=O)O	> 200 µM	115 µM	–
C[C@@H](CN1CC(=O)NC(=O)C1)N1CC(=O)NC(=O)C1	> 933 µM	91.2 µM	–
CC(=O)Oc1c(OC(C)C)cc(=O)n2ccsc12	> 200 µM	102 µM	–
COc1ccc(C2C(C#N)=C(S)N(C3OC(CO)C(O)C(O)C3O)C(c3ccccc3)=C2C(C)=O)cc1 (stereo not given)	> 200 µM	89.1 µM	–
CSc1nc(C)c(C(=O)CCN2CCOCC2)s1	> 200 µM	10 µM	–
[N-]=[N+]=NC[C@H]1OCO[C@H](CN=[N+]=[N-])[C@@H](OCCOCCCl)[C@@H]1OCCOCCCl	> 200 µM	148 µM	–
S=C=Nc1ccc(SSc2ccc(N=C=S)cc2)cc1	> 13.5 µM	11.2 µM	–
N#Cc1c(N=C/C=C/c2ccccc2)c(C(=O)Nc2ccccc2)n2c1CCCC2	> 200 µM	> 200 µM	–
Nc1cc(=O)[nH][nH]1	> 200 µM	> 200 µM	–
NNS(=O)(=O)c1ccc(/C=C2\NC(=O)NC2=O)cc1	> 200 µM	> 200 µM	–
COc1ccc(C2CC(=O)c3c(cc(OC)c(OC)c3OC)O2)cc1 (stereo not given)	> 200 µM	20.9 µM	–
O=c1oc2ccccc2c2nc3cc(Cl)ccc3cc12	> 50.1 µM	> 50.1 µM	–
CN(C)c1ccc(/C=c2\sc3nnc(Cc4ccccc4)n3c2=O)cc1	> 3.98 µM	> 3.98 µM	–
CC1CC/C(=C\c2ccc(Cl)cc2)C2=C1C(c1ccc(Cl)cc1)N1C(=O)CSC1=N2 (stereo not given)	–	–	inactive
CCOC(C(=O)N(C)CCN(C)CCc1ccccc1)(c1ccccc1)c1ccccc1	> 200 µM	37.2 µM	–
COC(=O)c1cc2c3ccccc3n(C(C)=O)c2cn1	–	–	inactive
CC(=O)c1ccccc1NCC(=O)Nn1cnc2ccc(S(=O)(=O)Nc3ccccc3C(C)=O)cc2c1=O	> 200 µM	> 200 µM	–
Cc1ccc(C(=O)NC2CCCCC2)cc1N=NN(C)C	> 46.8 µM	45.7 µM	–
CCN(c1cccc(NC(=S)Nc2ccccc2N(CC)c2cc(-c3ccccc3)no2)c1)c1cc(-c2ccccc2)no1	> 200 µM	> 200 µM	–
C=C1C(=O)OC(CCCCC)C1C(=O)O (stereo not given)	–	–	inactive
N/N=c1/nc2n(c3ncccc13)C=CNN2	> 24.5 µM	> 24.5 µM	–

Compound	EC50	IC50	outcome
O=C(O)C1C(c2c3ccc(=O)c(O)c-3oc3c(O)c(O)ccc23)C2(Cl)C(Cl)=C(Cl)C1(Cl)C2(Cl)Cl (stereo not given)	> 151 µM	> 151 µM	–
Cc1nc2c(Br)cc(Br)cc2c(=O)n1-c1ccccc1NC1OCC(O)C(O)C1O (stereo not given)	> 200 µM	–	–
CC(=O)ONC(C(=O)C(C)(C)C)C(=O)C(C)(C)C	> 200 µM	> 200 µM	–
CN(/N=C/c1ccnc2ccccc12)c1c([N+](=O)[O-])cc([N+](=O)[O-])cc1[N+](=O)[O-]	> 47.9 µM	8.71 µM	–
C=Cc1nc2nnc(CCCCCCCCc3nnc4nc(C=C)[nH]n34)n2[nH]1	> 200 µM	40.7 µM	–
CC(C)C1CNC(=O)C2(C=NC(C(C)C)CNC(=O)C3(C=N1)CCCO3)CCCO2 (stereo not given)	> 12.3 µM	> 12.3 µM	–
CC1(C)CC(=O)C2=C(C1)OC1=C(CC(C)(C)CC1=O)C2c1ccccc1Cl (stereo not given)	> 200 µM	162 µM	–
O=c1c(SCc2ccc(Br)cc2)c(SCc2ccc(Br)cc2)cnn1-c1ccccc1	> 12.6 µM	6.46 µM	–
COC1(OC)C2(Cl)C(Cl)=C(Cl)C1(Cl)C1C(=O)C=CC(=O)C12 (stereo not given)	> 60.3 µM	25.1 µM	–
COC(=O)C(Cc1ccccc1)NP(=O)(O)OCC1OC(n2ccc(N)nc2=O)C(O)C1O (stereo not given)	> 200 µM	4.27 µM	–
Nc1cc(Cl)ccc1S	> 200 µM	13.8 µM	–
C[C@]12CC[C@@H](O)C[C@H]1CC[C@@H]1[C@@H]2[C@@H](O)C[C@@]2(C)[C@H]1CC[C@]2(O)[C@@H](O)CO	> 200 µM	> 200 µM	–
COC1=C(C)C(=O)C2C(C1=O)C(c1ccc(OC)c(OC)c1)[C@H]2C (stereo not given in full)	> 151 µM	135 µM	–
Cc1n[nH]c(=O)n1/N=C/c1cccnc1	–	–	inactive
CCCCCCCCc1cc2c(O)c(c1)Cc1cc(CCCCCCCC)cc(c1O)Cc1cc(CCCCCCCC)cc(c1O)Cc1cc(CCCCCCCC)cc(c1O)Cc1cc(CCCCCCCC)cc(c1O)Cc1cc(CCCCCCCC)cc(c1O)C2	–	–	inactive
Cc1ccc(C2=NNc3n[nH]c(=S)n3N2)cc1	> 75.9 µM	> 75.9 µM	–
CCOC(=O)/C(=C/c1ccc(OC)c(OC)c1)C(=O)c1ccccc1	> 75.9 µM	40.7 µM	–
O=Cc1c(-c2ccccc2)nc2sc(-c3ccc4c(c3)OCO4)nn12	–	–	inactive
CN(C)c1ccc(/C=C(\NC(=O)c2ccccc2)C(=O)Nc2ccccc2C(=O)NCc2ccccc2)cc1	> 151 µM	70.8 µM	–
CSCCC(NC(=O)OCc1ccccc1)P(=O)(O)c1ccccc1 (stereo not given)	> 200 µM	> 200 µM	–
COc1cc(C(c2cc3c(cc2O)OCO3)N2CCCC2)cc(OC)c1OC (stereo not given)	> 200 µM	7.76 µM	–
N#CCCN(c1ccc(C=Nc2ccccc2)cc1)S(=O)(=O)c1ccccc1	–	–	inactive

Compound	EC50	IC50	outcome
Cc1ccc(/C=C2\Cc3cccc(C)c3C2=O)c(C(=O)O)c1	> 200 µM	105 µM	–
COc1ccc(/C=C2\N=C(N3CCCCC3)NC2=O)cc1	> 200 µM	> 100 µM	–
CC(C)(C)OC(=O)N1CC(O)O[C@H](c2ccccc2)[C@@H]1c1ccccc1 (stereo not given in full)	> 200 µM	32.4 µM	–
Cc1nc(Nc2ccccc2)sc1C(=O)NNC(N)=O	> 151 µM	63.1 µM	–
O=C1[C@@H]2C(c3ccccn3)=NO[C@@H]2C(=O)N1c1ccc(Cc2ccc(N3C(=O)[C@H]4C(c5ccccn5)=NO[C@H]4C3=O)cc2)cc1	> 8.71 µM	> 8.71 µM	–
Nc1ccc(S(N)(=O)=O)cc1SSc1cc(S(N)(=O)=O)ccc1N	55 µM	132 µM	–
O=c1[nH]cnc2c1ncn2C1CC(O)C(CO)(C(F)(F)F)O1 (stereo not given)	> 200 µM	132 µM	–
O=Cc1ccccc1OCCCC[P+](c1ccccc1)(c1ccccc1)c1ccccc1	> 200 µM	2.82 µM	–
CC1=C(O)C(=O)C2C(=O)C1C(C)C2c1ccc(C)cc1 (stereo not given)	> 251 µM	> 251 µM	–
Cc1c([N+](=O)[O-])ccc2c(NCCCN(C)C)ccnc12	> 200 µM	19.1 µM	–
O=c1cc(-c2c(O)cc(O)cc2O)oc2cc(O)cc(O)c12	> 200 µM	> 200 µM	–
O=C(O)c1ccc2c[n+]3ccccc3cc2c1	> 427 µM	> 427 µM	–
Cc1nn(C(=O)Cc2ccccc2)c2c1C(c1ccccc1O)SC(N)=N2 (stereo not given)	57.5 µM	398 µM	–
COc1cccc(-c2nc(-c3cnccn3)n(C/C=C/c3ccccc3)n2)c1	178 µM	> 200 µM	–
CC(C)=CCC1(c2ccccc2)Oc2ccccc2-n2cccc2C1=O (stereo not given)	> 200 µM	138 µM	–
CN1C(=O)OC(c2ccc(Cl)cc2)C1=O (stereo not given)	> 200 µM	> 200 µM	–
CCOc1ccccc1NC(=O)C1=C(C)NC(C)=C(C(=O)Nc2ccccc2OCC)C1c1ccc([N+](=O)[O-])cc1	> 9.33 µM	> 9.33 µM	–
COc1cc(/C=C2\CCc3ccccc3C2=O)ccc1O	> 200 µM	9.33 µM	–
N#CC(C#N)[C@@H]1CCC=C(Sc2ccccc2)[C@H]1Sc1ccccc1	> 20 µM	3.63 µM	–
CCOc1cc2c(cc1O)C(O)C[C@@H]1[C@@H]2CC[C@]2(C)[C@@H](O)CC[C@@H]12 (stereo not given in full)	> 200 µM	0.0776 µM	–
CN(C)C=Nc1nc(=O)n(C2CCC(CO)O2)cc1F (stereo not given)	0.0676 µM	95.5 µM	–
COC(=O)C1(Cc2cccc(C)c2)Cc2c(C)cccc2C1=O (stereo not given)	> 200 µM	32.4 µM	–

Compound	EC50	IC50	outcome
CCOC(=O)/C(C#N)=C/c1ccccc1Br	–	–	inactive
CN1CCN=C1c1ccc(NC(=O)c2ccc(C(=O)Nc3ccc(C4=NCCN4C)cc3)cc2)cc1	> 200 µM	74.1 µM	–
COC1=C(C)C(=O)c2nc(COC(C)=O)ccc2C1=O	–	–	inactive
O=C1c2ccccc2C(=O)N1CCn1nc(-c2ccccc2)cc(-c2ccccc2)c1=O	> 12.3 µM	> 12.3 µM	–
O=C(O)c1ccc([N+](=O)[O-])c2c(=O)c3ccccc3[nH]c12	–	–	inactive
CCN(CC)C(=S)N/N=C/c1ccccn1	> 0.2 µM	0.00363 µM	–
CN(C)c1nc(N)c(C#N)c(C#N)c1C#N	> 200 µM	8.71 µM	–
CCN(CC)CN1C(=O)C(=O)c2ccccc21	> 200 µM	> 200 µM	–
CCOC(=O)CNc1nnnn1C1OC(CO)C(O)C1O (stereo not given)	> 832 µM	> 832 µM	–
COc1ccc(N(CN2C(=O)CCC2OC)C(C)=O)cc1 (stereo not given)	–	–	inactive
NS(=O)(=O)c1ccc(NC(=O)c2cccc3cc4ccccc4nc23)cc1	> 79.4 µM	4.79 µM	–
Cc1ccc(NC(=O)C(=O)C(C2C(C)CC(=O)C2CC(=O)O)[N+](=O)[O-])cc1 (stereo not given)	–	–	inactive
CCOC(=O)c1c(N=P(c2ccccc2)(c2ccccc2)c2ccccc2)nnc(-c2ccccc2)c1-c1ccccc1	> 100 µM	> 100 µM	–
O=c1oc2ccccc2c(O)c1C(c1ccc([N+](=O)[O-])cc1)c1c(O)c2ccccc2oc1=O	–	–	inactive
CC(C)(C)O/N=C/c1cc(NC(=S)c2ccsc2)ccc1Cl	2.14 µM	9.55 µM	–
COc1nnc(C)c2[nH]c(=S)[nH]c12	> 457 µM	> 457 µM	–
CC(=O)NC(CCCCN)C(=O)NCc1ccccc1 (stereo not given)	> 912 µM	> 912 µM	–
CC1=CC(=O)C(=O)C2=C1OC1(C2)C(C)CCC2C3(C)CCC(O)C(C)(C)C3CCC21C (stereo not given)	> 100 µM	47.9 µM	–
c1ccc(C2OCCO2)c(OCCOc2cc(OCCOc3ccccc3C3OCCO3)c(OCCOc3ccccc3C3OCCO3)cc2OCCOc2ccccc2C2OCCO2)c1	> 7.94 µM	> 7.94 µM	–
O[C@@H]1CO[C@H]2[C@@H]1OC[C@@H]2O	> 200 µM	> 200 µM	–
O=C(CC1(O)C(=O)Nc2c(Cl)cc(Cl)cc21)c1ccc(F)cc1 (stereo not given)	> 28.2 µM	> 28.2 µM	–
